Patent US12479840B2, “HMG-CoA reductase degradation inducing compound” (Uppthera, priority 2020, dated 2025)

The compounds below were run against T1, HMG-CoA reductase (Homo sapiens, UniProt P04035) (assay: HMG-CoA reductase (HMGCR) degradation in HepG2 cells by western blotting). Conditions: treated for 18 hours, ratio of HMG-CoA reductase to GAPDH, read-out: DC50.
T1 construct: endogenous in cells; host or cells: HepG2 (Korea Cell Line Bank)
T1 sequence (P04035 1-888): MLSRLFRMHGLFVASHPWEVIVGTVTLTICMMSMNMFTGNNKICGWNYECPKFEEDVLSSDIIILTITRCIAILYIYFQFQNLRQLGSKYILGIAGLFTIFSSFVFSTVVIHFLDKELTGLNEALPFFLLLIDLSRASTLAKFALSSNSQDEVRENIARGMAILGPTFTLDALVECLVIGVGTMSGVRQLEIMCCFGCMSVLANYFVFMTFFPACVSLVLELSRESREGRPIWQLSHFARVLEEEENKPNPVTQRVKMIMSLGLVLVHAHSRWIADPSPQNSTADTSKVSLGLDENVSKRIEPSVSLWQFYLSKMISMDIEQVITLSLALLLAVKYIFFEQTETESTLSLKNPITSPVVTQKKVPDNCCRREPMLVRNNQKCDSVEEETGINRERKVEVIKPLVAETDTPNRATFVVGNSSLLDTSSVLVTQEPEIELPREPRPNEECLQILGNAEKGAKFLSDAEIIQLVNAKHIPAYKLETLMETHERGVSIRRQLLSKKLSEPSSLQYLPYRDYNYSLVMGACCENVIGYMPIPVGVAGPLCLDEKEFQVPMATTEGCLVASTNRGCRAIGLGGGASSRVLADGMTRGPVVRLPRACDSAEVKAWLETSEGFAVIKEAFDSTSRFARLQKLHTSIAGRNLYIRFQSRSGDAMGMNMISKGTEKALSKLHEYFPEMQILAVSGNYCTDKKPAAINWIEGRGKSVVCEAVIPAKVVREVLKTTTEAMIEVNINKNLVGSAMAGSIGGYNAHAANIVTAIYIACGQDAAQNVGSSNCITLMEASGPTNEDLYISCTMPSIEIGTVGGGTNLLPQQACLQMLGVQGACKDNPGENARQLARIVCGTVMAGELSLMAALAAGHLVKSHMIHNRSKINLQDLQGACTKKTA
Type: cell-based
Method in brief: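 HepG2 cells (passage P105–P110) treated 18 hours with compounds in 10-point three-fold dilutions from 3 μM. RIPA lysates (15 μg protein, BCA-quantified) run on SDS-PAGE and immunoblotted for HMGCR (1:500) with GAPDH (1:20000) as loading control, primary antibodies 16 hours at 4° C.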

DC50	Structure (SMILES)
50 to 500 nM	C[C@H]1C=C2C=C[C@H](C)[C@H](CC[C@@H]3C[C@@H](O)CC(=O)O3)[C@H]2[C@@H](OC(=O)NCCOCCOCCNC(=O)COc2cccc3c2C(=O)N(C2CCC(=O)NC2=O)C3=O)C1 (stereo partly drawn) [Compound 139, (1S,3R,7S,8S,8aR)-8-(2-((2R,4R)-4-hydroxy-6-oxotetrahydro-2H-pyran-2-yl)ethyl)-3,7-dimethyl-1,2,3,7,8,8a-hexahydronaphthalen-1-yl (2-(2-(2-(2-((2-(2,6-dioxopiperidin-3-yl)-1,3-dioxoisoindolin-4-yl)oxy)acetamido)ethoxy)ethoxy)ethyl)carbamate]
50 to 500 nM	C[C@H]1C=C2C=C[C@H](C)[C@H](CC[C@@H]3C[C@@H](O[Si](C)(C)C(C)(C)C)CC(=O)O3)[C@H]2[C@@H](OC(=O)NCCOCCOCC(=O)Nc2cccc3c2C(=O)N(C2CCC(=O)NC2=O)C3=O)C1 (stereo partly drawn) [Compound 142, (1S,3R,7S,8S,8aR)-8-(2-((2R,4R)-4-((tert-butyldimethylsilyl)oxy)-6-oxotetrahydro-2H-pyran-2-yl)ethyl)-3,7-dimethyl-1,2,3,7,8,8a-hexahydronaphthalen-1-yl (2-(2-(2-((2-(2,6-dioxopiperidin-3-yl)-1,3-dioxoisoindolin-4-yl)amino)-2-oxoethoxy)ethoxy)ethyl)carbamate]
< 50 nM	C[C@H]1C=C2C=C[C@H](C)[C@H](CC[C@@H]3C[C@@H](O)CC(=O)O3)[C@H]2[C@@H](OC(=O)NCCOCCOCC(=O)Nc2cccc3c2C(=O)N(C2CCC(=O)NC2=O)C3=O)C1 (stereo partly drawn) [Compound 143, (1S,3R,7S,8S,8aR)-8-(2-((2R,4R)-4-hydroxy-6-oxotetrahydro-2H-pyran-2-yl)ethyl)-3,7-dimethyl-1,2,3,7,8,8a-hexahydronaphthalen-1-yl (2-(2-(2-((2-(2,6-dioxopiperidin-3-yl)-1,3-dioxoisoindolin-4-yl)amino)-2-oxoethoxy)ethoxy)ethyl)carbamate]
< 50 nM	C[C@H]1C=C2C=C[C@H](C)[C@H](CC[C@@H]3C[C@@H](O)CC(=O)O3)[C@H]2[C@@H](OC(=O)NCCOCC(=O)NCC(=O)Nc2cccc3c2C(=O)N(C2CCC(=O)NC2=O)C3=O)C1 (stereo partly drawn) [Compound 145, (1S,3R,7S,8S,8aR)-8-(2-((2R,4R)-4-hydroxy-6-oxotetrahydro-2H-pyran-2-yl)ethyl)-3,7-dimethyl-1,2,3,7,8,8a-hexahydronaphthalen-1-yl (2-(2-((2-((2-(2,6-dioxopiperidin-3-yl)-1,3-dioxoisoindolin-4-yl)amino)-2-oxoethyl)amino)-2-oxoethoxy)ethyl)carbamate]
< 50 nM	C[C@H]1C=C2C=C[C@H](C)[C@H](CC[C@@H]3C[C@@H](O[Si](C)(C)C(C)(C)C)CC(=O)O3)[C@H]2[C@@H](OC(=O)NCCc2ccc(CC(=O)Nc3cccc4c3C(=O)N(C3CCC(=O)NC3=O)C4=O)cc2)C1 (stereo partly drawn) [Compound 146, (1S,3R,7S,8S,8aR)-8-(2-((2R,4R)-4-((tert-butyldimethylsilyl)oxy)-6-oxotetrahydro-2H-pyran-2-yl)ethyl)-3,7-dimethyl-1,2,3,7,8,8a-hexahydronaphthalen-1-yl (4-(2-((2-(2,6-dioxopiperidin-3-yl)-1,3-dioxoisoindolin-4-yl)amino)-2-oxoethyl)phenethyl)carbamate]
< 50 nM	C[C@H]1C=C2C=C[C@H](C)[C@H](CC[C@@H]3C[C@@H](O)CC(=O)O3)[C@H]2[C@@H](OC(=O)NCCc2ccc(CC(=O)Nc3cccc4c3C(=O)N(C3CCC(=O)NC3=O)C4=O)cc2)C1 (stereo partly drawn) [Compound 147, (1S,3R,7S,8S,8aR)-8-(2-((2R,4R)-4-hydroxy-6-oxotetrahydro-2H-pyran-2-yl)ethyl)-3,7-dimethyl-1,2,3,7,8,8a-hexahydronaphthalen-1-yl (4-(2-((2-(2,6-dioxopiperidin-3-yl)-1,3-dioxoisoindolin-4-yl)amino)-2-oxoethyl)phenethyl)carbamate]
< 50 nM	C[C@H]1C=C2C=C[C@H](C)[C@H](CC[C@@H]3C[C@@H](O)CC(=O)O3)[C@H]2[C@@H](OC(=O)C(C)(C)CCC(=O)NCCOCCOCCNc2cccc3nnn(C4CCC(=O)NC4=O)c(=O)c23)C1 (stereo partly drawn) [Compound 152, (1S,3R,7S,8S,8aR)-8-(2-((2R,4R)-4-hydroxy-6-oxotetrahydro-2H-pyran-2-yl)ethyl)-3,7-dimethyl-1,2,3,7,8,8a-hexahydronaphthalen-1-yl 5-((2-(2-(2-((3-(2,6-dioxopiperidin-3-yl)-4-oxo-3,4-dihydrobenzo[d][1,2,3]triazin-5-yl)amino)ethoxy)ethoxy)ethyl)amino)-2,2-dimethyl-5-oxopentanoate]
< 50 nM	C[C@H]1C=C2C=C[C@H](C)[C@H](CC[C@@H]3CC=CC(=O)O3)[C@H]2[C@@H](OC(=O)NCCOCCOCCNc2cccc3c2C(=O)N(C2CCC(=O)NC2=O)C3=O)C1 (stereo partly drawn) [Compound 153, (1S,3R,7S,8S,8aR)-3,7-dimethyl-8-(2-((R)-6-oxo-3,6-dihydro-2H-pyran-2-yl)ethyl)-1,2,3,7,8,8a-hexahydronaphthalen-1-yl (2-(2-(2-((2-(2,6-dioxopiperidin-3-yl)-1,3-dioxoisoindolin-4-yl)amino)ethoxy)ethoxy)ethyl)carbamate]
> 500 nM	Cc1ncsc1-c1ccc(CNC(=O)[C@@H]2C[C@@H](O)CN2C(=O)[C@@H](NC(=O)CCCCCCCCCCNC(=O)O[C@H]2C[C@@H](C)C=C3C=C[C@H](C)[C@H](CC[C@@H](O)C[C@@H](O)CC(=O)O)[C@H]32)C(C)(C)C)cc1 [Compound 154, (3R,5R)-3,5-dihydroxy-7-((1S,2S,6R,8S,8aR)-8-(((11-(((S)-1-((2S,4R)-4-hydroxy-2-((4-(4-methylthiazol-5-yl)benzyl)carbamoyl)pyrrolidin-1-yl)-3,3-dimethyl-1-oxobutan-2-yl)amino)-11-oxoundecyl)carbamoyl)oxy)-2,6-dimethyl-1,2,6,7,8,8a-hexahydronaphthalen-1-yl)heptanoic acid]
< 50 nM	C[C@H]1C=C2C=C[C@H](C)[C@H](CC[C@@H]3C[C@@H](O[Si](C)(C)C(C)(C)C)CC(=O)O3)[C@H]2[C@@H](OC(=O)NCCOCCOCCNc2cccc3nnn(C4CCC(=O)NC4=O)c(=O)c23)C1 (stereo partly drawn) [Compound 155, (1S,3R,7S,8S,8aR)-8-(2-((2R,4R)-4-((tert-butyldimethylsilyl)oxy)-6-oxotetrahydro-2H-pyran-2-yl)ethyl)-3,7-dimethyl-1,2,3,7,8,8a-hexahydronaphthalen-1-yl (2-(2-(2-((3-(2,6-dioxopiperidin-3-yl)-4-oxo-3,4-dihydrobenzo[d][1,2,3]triazin-5-yl)amino)ethoxy)ethoxy)ethyl)carbamate]
< 50 nM	C[C@H]1C=C2C=C[C@H](C)[C@H](CC[C@@H]3C[C@@H](O)CC(=O)O3)[C@H]2[C@@H](OC(=O)NCCOCCOCCNc2cccc3nnn(C4CCC(=O)NC4=O)c(=O)c23)C1 (stereo partly drawn) [Compound 156, (1S,3R,7S,8S,8aR)-8-(2-((2R,4R)-4-hydroxy-6-oxotetrahydro-2H-pyran-2-yl)ethyl)-3,7-dimethyl-1,2,3,7,8,8a-hexahydronaphthalen-1-yl (2-(2-(2-((3-(2,6-dioxopiperidin-3-yl)-4-oxo-3,4-dihydrobenzo[d][1,2,3]triazin-5-yl)amino)ethoxy)ethoxy)ethyl)carbamate]
< 50 nM	C[C@H]1C=C2C=C[C@H](C)[C@H](CC[C@@H]3C[C@@H](O)CC(=O)O3)[C@H]2[C@@H](OC(=O)NCCCOCCOCCOCCCNc2cccc3c2C(=O)N(C2CCC(=O)NC2=O)C3=O)C1 (stereo partly drawn) [Compound 157, (1S,3R,7S,8S,8aR)-8-(2-((2R,4R)-4-hydroxy-6-oxotetrahydro-2H-pyran-2-yl)ethyl)-3,7-dimethyl-1,2,3,7,8,8a-hexahydronaphthalen-1-yl (3-(2-(2-(3-((2-(2,6-dioxopiperidin-3-yl)-1,3-dioxoisoindolin-4-yl)amino)propoxy)ethoxy)ethoxy)propyl)carbamate]

Structure (SMILES)	DC50
C[C@H]1C=C2C=C[C@H](C)[C@H](CC[C@@H]3C[C@@H](O[Si](C)(C)C(C)(C)C)CC(=O)O3)[C@H]2[C@@H](OC(=O)NCCOCC(=O)NCC(=O)Nc2cccc3c2C(=O)N(C2CCC(=O)NC2=O)C3=O)C1 (stereo partly drawn) [Compound 144, (1S,3R,7S,8S,8aR)-8-(2-((2R,4R)-4-((tert-butyldimethylsilyl)oxy)-6-oxotetrahydro-2H-pyran-2-yl)ethyl)-3,7-dimethyl-1,2,3,7,8,8a-hexahydronaphthalen-1-yl (2-(2-((2-((2-(2,6-dioxopiperidin-3-yl)-1,3-dioxoisoindolin-4-yl)amino)-2-oxoethyl)amino)-2-oxoethoxy)ethyl)carbamate]	50 to 500 nM
